According to PMC10349806 (Nature Communications, 2023):
Values joined by “and” are separate entries in the source; they are usually repeats but may differ in a detail not shown here. Equal values may be shown once.

Key:
PfCRT variant E207V = experiment: CQ uptake assay, oocytes expressing E207V; type: cell-based, Plasmodium falciparum
Description: (§1) Site-directed mutagenesis of PfCRT^Dd2 was performed as described using the megaprimer method with overlap extension[21],[54]. The primer pairs used are listed in Supplementary Table 6. Please note that a codon-optimized and oocyte-adapted version of PfCRT^Dd2 was used[22] (Supplementary Fig. 16). The resulting DNA fragment was cloned into the SP64T expression vector and verified by sequencing.
(§2) Oocytes were obtained as described previously. Briefly, adult (>2 years old) female X. laevis frogs (NASCO) were anesthetized in a cooled solution of ethyl 3-amino benzoate methanesulfonate (0.1%, w/v), followed by a surgical removal of parts of the ovary. The ovary lobes were carefully dissected and small pieces of oocytes were incubated in Ca^2+-free ND96 buffer (96 mM NaCl, 2 mM KCl, 1 mM MgCl2 buffered with 5 mM HEPES/NaOH, pH 7.5) supplemented with collagenase D (0.1%, w/v; Roche), BSA (0.5%, w/v), and 9 mm Na2HPO4 at 18 °C for 14-16 h while gentle shaking. After incubation, the oocytes were carefully washed several times with ND96 buffer (96 mM NaCl, 2 mM KCl, 1.8 mM CaCl2, 1 mM MgCl2 buffered with 5 mM HEPES/NaOH, pH 7.5) supplemented with 100 mg l^−1 gentamycin). Defolliculated and healthy-looking stage V-VI oocytes were manually selected for RNA microinjection. The RNA was generated as following: The codon-optimized sequences of PfCRT variants were cloned into the pSP64T expression vector. After vector linearization using the restriction endonucleases BamHI or SalI (New England Biolabs), transcription was performed using the in vitro SP6 mMessage mMachine Kit (Ambion)[34]. The obtained RNA was kept at −80 °C and diluted with nuclease-free water to a concentration of 0.6 μg μl^−1. Precision-bore glass capillary tubes (3.5-inch glass capillaries; Drummond Scientific Co.) were pulled on a vertical puller (P-87 Flaming/Brown micropipette puller, Sutter Instrument Co.), graduated, and placed on a microinjector (Nanoject II Auto-Nanoliter Injector, Drummond Scientific Co.). 50 nl of nuclease-free water alone (control oocytes) or 50 nl of 0.6 μg μl^−1 RNA were injected under stereomicroscopic control. Injected oocytes were incubated for 46–72 h at 18 °C with twice-daily buffer changes before usage in experiments.
Drug uptake assays were performed as described previously[21],[22],[24],[34]. […] The direction of radio-labeled drug transport is here from the mostly acidic extracellular solution (pH 4.5 or 6.0, as indicated) into the oocyte cytosol (pH ∼ 7.2), which corresponds to the efflux of drug from the acidic digestive vacuole (pH 5.2) into the parasite cytoplasm (pH 7.2). The topology of PfCRT in the oolemma is such that both the N- and C-terminus face the extracellular milieu[3],[22]. In the parasite, the N- and C-terminus face the lumen of the digestive vacuole. CQ uptake kinetics were performed by incubating oocytes in ND96 buffer adjusted to a pH of 4.5, 5.0, 5.5, or 6.0 and supplemented with 50 nM [^3H]CQ and one of 7 different CQ concentrations (10 µM, 50 µM, 100 µM, 200 µM, 300 µM, 400 µM, 500 µM CQ). The reaction was stopped at the 60 min time point, which is in the linear uptake range[22],[34] (Supplementary Fig. 17). For determination of the amount of drug uptake for each oocyte, the reaction medium was removed and the oocytes were washed three times with 2 ml of ice-cold ND96 buffer. Each oocyte was individually transferred to a scintillation vial containing 5% sodium dodecyl sulfate (200 μl) for lysis. The radioactivity of each sample was measured using a liquid scintillation analyzer Tri-Carb 4910 TR (PerkinElmer). Oocytes that were injected with water instead of RNA were analyzed in parallel, representing the uptake of a drug by diffusion and/or endogenous permeation pathways. The resulting value represents the “background“ level of drug accumulation in oocytes (in-depth discussion in[22]). […]

PfCRT variant E271A = biological target: T1, PfCRT variant E271A (Plasmodium falciparum, UniProt Q9N623, A220S/I356T/K76T/M74I/N326S/N75E/Q271A/R371I); experiment: CQ uptake assay, oocytes expressing E271A; type: cell-based
T1 sequence (Q9N623 1-424 M74I/N75E/K76T/A220S/Q271A/N326S/I356T/R371I): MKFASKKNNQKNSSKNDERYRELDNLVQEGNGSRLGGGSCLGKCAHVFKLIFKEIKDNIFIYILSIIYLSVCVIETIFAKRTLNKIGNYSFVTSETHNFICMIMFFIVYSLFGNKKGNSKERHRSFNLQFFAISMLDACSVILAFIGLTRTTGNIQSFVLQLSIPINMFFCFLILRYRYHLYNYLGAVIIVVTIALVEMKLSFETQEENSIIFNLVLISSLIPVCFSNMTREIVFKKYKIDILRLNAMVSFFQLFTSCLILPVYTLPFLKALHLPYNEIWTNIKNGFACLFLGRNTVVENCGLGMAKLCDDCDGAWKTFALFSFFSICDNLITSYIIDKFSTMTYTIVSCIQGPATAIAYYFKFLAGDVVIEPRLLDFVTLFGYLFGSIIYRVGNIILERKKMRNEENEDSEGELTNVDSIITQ
Description: as §1, §2
Drug uptake assays were performed as described previously[21],[22],[24],[34]. […] Oocytes that were injected with water instead of RNA were analyzed in parallel, representing the uptake of a drug by diffusion and/or endogenous permeation pathways. […] The specific PfCRT-mediated uptake was determined by subtracting the corresponding background value measured in water-injected oocytes from that of PfCRT-expressing oocytes. […]

[1] = E207V, 50 µM CQ, 1 h, mean ± SEM

CCN(CC)CCCC(C)Nc1ccnc2cc(Cl)ccc12 (stereo not shown) [CQ, chloroquine]
Activity at pH 4.5 (PfCRT variant E207V; [1]): 2.0 ± 0.13 pmol h-1 oocyte-1 | Activity at pH 6.0 (PfCRT variant E207V; [1]): 2.09 ± 0.15 pmol h-1 oocyte-1 | R-value (PfCRT variant E207V; E207V, CQ transport at pH 4.5 / pH 6.0): 0.96 ± 0.02 | E207V transport activity pH 4.5 (PfCRT variant E207V; pH 4.5, individual replicates, Fig 6b): 2.33 pmol oocyte-1 h-1 and 1.85 pmol oocyte-1 h-1 and 1.83 pmol oocyte-1 h-1 | E207V transport activity pH 6.0 (PfCRT variant E207V; pH 6.0, individual replicates, Fig 6b): 2.45 pmol oocyte-1 h-1 and 1.85 pmol oocyte-1 h-1 and 1.96 pmol oocyte-1 h-1 | E207V R-value (PfCRT variant E207V; ratio of activity pH 4.5 / pH 6.0): 0.95 and 1.00 and 0.93 | Activity at pH 4.5 (PfCRT variant E271A; E271A, 50 µM CQ, 1 h, mean ± SEM): 1.01 ± 0.09 pmol h-1 oocyte-1 | R-value (PfCRT variant E271A; E271A, CQ transport at pH 4.5 / pH 6.0): 0.61 ± 0.09 | E271A transport activity pH 4.5 (PfCRT variant E271A; pH 4.5, single replicates, Fig 1d left): 1.17 pmol oocyte-1 h-1 and 1.13 pmol oocyte-1 h-1 and 0.65 pmol oocyte-1 h-1 and 0.98 pmol oocyte-1 h-1 | E271A transport activity pH 6.0 (PfCRT variant E271A; pH 6.0, single replicates, Fig 1d left): 1.98 pmol oocyte-1 h-1 and 1.71 pmol oocyte-1 h-1 and 1.20 pmol oocyte-1 h-1 and 2.10 pmol oocyte-1 h-1 and 1.74 pmol oocyte-1 h-1
